14 molecules from ChEMBL document CHEMBL1201862, “PubChem BioAssay data set” (2004) can be followed below.

Calls of active or inactive are those of the source.

The target in assay [1] is T1, Voltage-gated N-type calcium channel alpha-1B subunit/Amyloid beta A4 precursor protein-binding family A member 1 (Homo sapiens, UniProt Q00975+Q02410). Format: protein assay.
The target in assay [2] is T1, Voltage-gated N-type calcium channel alpha-1B subunit/Amyloid beta A4 precursor protein-binding family A member 1. The format is protein assay. This is another data set of the same source.
Assay [3] deals with T2, RNA-binding protein pos-1 (Caenorhabditis elegans, UniProt G5EF15).
T2 sequence (G5EF15 whole entry): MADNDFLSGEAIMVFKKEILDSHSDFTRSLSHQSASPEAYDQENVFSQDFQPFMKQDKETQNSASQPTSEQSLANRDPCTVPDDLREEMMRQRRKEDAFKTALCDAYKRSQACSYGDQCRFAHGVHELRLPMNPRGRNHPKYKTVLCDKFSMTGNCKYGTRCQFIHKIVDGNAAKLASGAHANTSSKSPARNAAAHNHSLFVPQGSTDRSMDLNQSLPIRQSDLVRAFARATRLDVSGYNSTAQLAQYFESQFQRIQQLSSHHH
The assay can be described thus: inhibitors of POS-1/mex-3 RNA binding, dose response, biochemical, fluorescence polarization (AID 1964).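 Further: purified POS-1 fused to maltose binding protein made in E. coli; potency of compounds blocking POS-1 binding to fluorescent RNA.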

For assay [4], the target named is T3, Zinc finger protein mex-5 (Caenorhabditis elegans, UniProt Q9XUB2).
T3 sequence (Q9XUB2 whole entry): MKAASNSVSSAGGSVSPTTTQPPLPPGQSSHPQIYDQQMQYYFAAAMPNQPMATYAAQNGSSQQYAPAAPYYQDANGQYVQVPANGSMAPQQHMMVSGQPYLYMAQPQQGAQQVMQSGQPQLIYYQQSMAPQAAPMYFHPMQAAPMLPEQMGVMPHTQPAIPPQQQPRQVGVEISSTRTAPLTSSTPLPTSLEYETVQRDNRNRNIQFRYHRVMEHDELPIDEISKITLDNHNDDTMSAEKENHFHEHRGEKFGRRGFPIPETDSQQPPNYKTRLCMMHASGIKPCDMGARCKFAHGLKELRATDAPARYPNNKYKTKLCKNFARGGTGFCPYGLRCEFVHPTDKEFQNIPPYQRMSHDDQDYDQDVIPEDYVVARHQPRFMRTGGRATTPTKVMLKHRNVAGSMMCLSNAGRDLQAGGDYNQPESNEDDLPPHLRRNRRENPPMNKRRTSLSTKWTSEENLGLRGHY
As to the kind of experiment: MEX-5/TCR-2 RNA interaction inhibitors, dose response, biochemical, C. elegans, fluorescence polarization (AID 1960). In general terms: In fluorescence polarisation assays a small probe gives low polarisation when free and higher when bound to something large.

Assay [5] has as its target Induced myeloid leukemia cell differentiation protein Mcl-1 (Homo sapiens, UniProt Q07820). Format: functional.
Assay [6] concerns the target T4, Ubiquitin-conjugating enzyme E2 N (Homo sapiens, UniProt P61088).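 Further: Dose-response confirmation in a TR-FRET assay detecting UBC13-driven polyubiquitin chain formation, inhibition measured.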
T4 sequence (P61088 whole entry): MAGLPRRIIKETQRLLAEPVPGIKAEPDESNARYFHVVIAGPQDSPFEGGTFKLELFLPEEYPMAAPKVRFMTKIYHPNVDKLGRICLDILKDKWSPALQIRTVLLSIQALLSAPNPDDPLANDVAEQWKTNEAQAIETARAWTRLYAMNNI
The format is functional.

Assay [7] concerns the target T5, Short transient receptor potential channel 4 (Mus musculus, UniProt Q9QUQ5).
T5 sequence (Q9QUQ5 whole entry): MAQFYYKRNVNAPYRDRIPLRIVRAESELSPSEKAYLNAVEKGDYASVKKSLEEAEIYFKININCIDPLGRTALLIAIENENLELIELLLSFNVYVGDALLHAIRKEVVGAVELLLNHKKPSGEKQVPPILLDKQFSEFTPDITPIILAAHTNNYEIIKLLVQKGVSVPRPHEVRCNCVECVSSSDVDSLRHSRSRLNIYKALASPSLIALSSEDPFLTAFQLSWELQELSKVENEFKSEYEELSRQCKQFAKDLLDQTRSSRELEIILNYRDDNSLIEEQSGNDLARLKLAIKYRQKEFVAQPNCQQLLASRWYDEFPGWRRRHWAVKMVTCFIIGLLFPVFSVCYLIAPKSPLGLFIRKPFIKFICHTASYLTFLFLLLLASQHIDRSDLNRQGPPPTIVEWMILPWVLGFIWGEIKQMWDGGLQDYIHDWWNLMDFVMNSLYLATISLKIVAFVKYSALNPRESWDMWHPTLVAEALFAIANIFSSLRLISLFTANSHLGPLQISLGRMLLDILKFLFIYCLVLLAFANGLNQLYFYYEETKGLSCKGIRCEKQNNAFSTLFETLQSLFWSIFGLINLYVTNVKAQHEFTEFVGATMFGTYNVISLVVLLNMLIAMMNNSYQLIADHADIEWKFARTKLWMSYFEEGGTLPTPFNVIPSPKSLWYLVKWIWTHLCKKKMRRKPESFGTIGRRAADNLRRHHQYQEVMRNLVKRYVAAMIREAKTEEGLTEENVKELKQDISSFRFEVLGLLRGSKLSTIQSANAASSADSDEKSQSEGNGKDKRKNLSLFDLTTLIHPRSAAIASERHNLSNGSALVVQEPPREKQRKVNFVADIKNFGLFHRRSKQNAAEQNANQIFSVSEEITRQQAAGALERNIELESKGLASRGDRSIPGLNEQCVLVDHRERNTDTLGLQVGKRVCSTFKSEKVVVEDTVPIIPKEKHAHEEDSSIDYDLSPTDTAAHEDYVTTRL
As to the kind of experiment: mouse TRPC4 channel activators, dose response, cell-based, HEK293 TRPC4/mu-opioid, Fluo-4 calcium (AID 434937). The format is functional.

In assay [8] the test system is Streptococcus sp. 'group A'. As to the kind of experiment: growth inhibition of control SK(-) GAS strain, dose response, counter-screen for streptokinase expression inhibitor project, luminescence, kanamycin, BacTiterGlo, confirmation (AID 1900). Format: functional, organism-based.
Assay [9] concerns the target T6, Replicative DNA helicase DnaB (Mycobacterium tuberculosis, UniProt P9WMR3).
T6 sequence (P9WMR3 whole entry): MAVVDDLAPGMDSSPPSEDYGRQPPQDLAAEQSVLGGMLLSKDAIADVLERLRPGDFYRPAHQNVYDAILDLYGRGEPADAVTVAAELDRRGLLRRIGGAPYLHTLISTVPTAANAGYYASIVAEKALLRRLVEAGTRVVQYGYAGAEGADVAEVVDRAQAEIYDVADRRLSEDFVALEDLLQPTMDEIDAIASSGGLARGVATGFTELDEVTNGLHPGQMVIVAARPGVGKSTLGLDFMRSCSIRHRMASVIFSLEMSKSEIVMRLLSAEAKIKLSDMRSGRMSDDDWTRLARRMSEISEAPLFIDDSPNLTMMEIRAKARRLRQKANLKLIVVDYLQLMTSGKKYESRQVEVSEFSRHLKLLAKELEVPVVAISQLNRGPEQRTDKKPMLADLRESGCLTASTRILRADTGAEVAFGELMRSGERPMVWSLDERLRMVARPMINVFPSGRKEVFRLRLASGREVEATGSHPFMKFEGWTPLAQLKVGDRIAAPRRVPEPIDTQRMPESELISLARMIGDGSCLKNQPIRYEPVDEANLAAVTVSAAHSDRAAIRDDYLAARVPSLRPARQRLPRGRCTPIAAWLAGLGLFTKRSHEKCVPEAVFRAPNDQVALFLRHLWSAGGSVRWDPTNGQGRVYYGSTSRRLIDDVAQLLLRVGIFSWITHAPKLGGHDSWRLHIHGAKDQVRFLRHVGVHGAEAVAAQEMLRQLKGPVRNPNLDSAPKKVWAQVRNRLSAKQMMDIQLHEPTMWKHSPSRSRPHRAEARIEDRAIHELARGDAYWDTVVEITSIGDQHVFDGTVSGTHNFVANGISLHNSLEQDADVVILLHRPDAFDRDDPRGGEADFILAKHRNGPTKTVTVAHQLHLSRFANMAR
As to the kind of experiment: DnaB intein splicing inhibitors, dose response, biochemical, cell-free fluorescence (AID 449749). Format: functional.

A further assay concerns Streptococcus. The assay can be described thus: Group A Streptococcus viability loss, dose response, counter-screen for streptokinase expression inhibitor project, luminescence, BacTiterGlo (AID 1915).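 Further: potency for reduction of bacterial viability or growth.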 The format is functional, organism-based. Background: Counterscreens check selectivity or assay interference.
For another assay, the target named is T7, Protein RecA (Mycobacterium tuberculosis, UniProt P9WHJ3).
T7 sequence (P9WHJ3 whole entry): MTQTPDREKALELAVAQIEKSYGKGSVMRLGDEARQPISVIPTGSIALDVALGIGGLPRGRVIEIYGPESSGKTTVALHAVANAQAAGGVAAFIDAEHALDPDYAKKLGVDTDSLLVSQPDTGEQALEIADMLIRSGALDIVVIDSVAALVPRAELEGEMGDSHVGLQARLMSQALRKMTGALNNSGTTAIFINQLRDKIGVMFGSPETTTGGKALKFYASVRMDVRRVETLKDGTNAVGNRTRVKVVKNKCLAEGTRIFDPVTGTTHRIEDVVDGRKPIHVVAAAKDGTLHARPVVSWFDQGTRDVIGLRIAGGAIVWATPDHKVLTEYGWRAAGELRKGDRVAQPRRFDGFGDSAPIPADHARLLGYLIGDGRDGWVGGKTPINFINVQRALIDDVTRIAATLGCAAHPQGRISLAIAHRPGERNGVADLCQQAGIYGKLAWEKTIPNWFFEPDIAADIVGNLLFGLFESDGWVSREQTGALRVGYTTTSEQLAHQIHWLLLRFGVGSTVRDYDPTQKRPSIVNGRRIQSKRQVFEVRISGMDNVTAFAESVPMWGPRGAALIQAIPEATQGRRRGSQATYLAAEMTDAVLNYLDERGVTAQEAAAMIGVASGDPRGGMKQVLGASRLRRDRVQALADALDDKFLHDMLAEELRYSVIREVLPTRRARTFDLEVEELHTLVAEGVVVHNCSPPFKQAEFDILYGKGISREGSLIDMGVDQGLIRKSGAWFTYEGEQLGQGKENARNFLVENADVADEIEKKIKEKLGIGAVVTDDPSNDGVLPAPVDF
As to the kind of experiment: Fluorescence Cell-Free Homogeneous Dose Retest to Identify Inhibitors of RecA-Intein Splicing Activity. [Related pubchem assays (depositor defined):AID2097, AID2223, AID489010, AID492950]. Format: functional.

Another assay has as its target T8, Streptokinase A (Streptococcus pyogenes serotype M1, UniProt P10520).
T8 sequence (P10520 whole entry): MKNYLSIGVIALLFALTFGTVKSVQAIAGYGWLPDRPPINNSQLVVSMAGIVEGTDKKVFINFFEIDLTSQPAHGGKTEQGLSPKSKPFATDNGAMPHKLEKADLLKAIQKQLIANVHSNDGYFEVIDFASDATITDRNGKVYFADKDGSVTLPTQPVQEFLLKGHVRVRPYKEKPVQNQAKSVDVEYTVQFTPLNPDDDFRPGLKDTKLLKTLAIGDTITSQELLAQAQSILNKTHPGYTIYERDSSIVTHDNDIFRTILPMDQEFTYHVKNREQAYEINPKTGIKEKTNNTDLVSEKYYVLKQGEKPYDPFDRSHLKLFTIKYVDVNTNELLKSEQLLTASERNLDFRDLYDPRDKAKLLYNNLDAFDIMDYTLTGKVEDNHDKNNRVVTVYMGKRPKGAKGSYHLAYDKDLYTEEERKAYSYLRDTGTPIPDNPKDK
The assay can be described thus: S. pyogenes streptokinase expression inhibitors, potency, dose response, plasminogen activation absorbance, OD405 (AID 1914).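 Further: secreted streptokinase activity via plasminogen activation per viability signal from cell pellet.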 The format is functional, Streptococcus pyogenes M1 GAS.

The target in a further assay is Large T antigen (Simian virus 40, UniProt P03070). Format: functional, Betapolyomavirus macacae.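 Further: Confirmatory-stage PubChem screen for compounds that inhibit SV40 T antigen.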
The nature of assay [10]: growth suppression of beta-catenin-knockout colon cells, dose response, cell-based, HCT116, human colon tumor (AID 1045).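 Further: HCT116 colon tumor cells with beta catenin knocked out; cells exposed to compound for 60 hours.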 Format: functional.
A short description of assay [11]: growth suppression of PTEN-null colon cells, dose response, cell-based, HCT116 PTEN knockout (AID 1047).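 Further: HCT116 colon tumor cells with PTEN knocked out; cells exposed to compound for 60 hours before readout; potency for loss of cell viability measured by luminescence.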 The format is functional.

T1 sequence (Q00975 whole entry): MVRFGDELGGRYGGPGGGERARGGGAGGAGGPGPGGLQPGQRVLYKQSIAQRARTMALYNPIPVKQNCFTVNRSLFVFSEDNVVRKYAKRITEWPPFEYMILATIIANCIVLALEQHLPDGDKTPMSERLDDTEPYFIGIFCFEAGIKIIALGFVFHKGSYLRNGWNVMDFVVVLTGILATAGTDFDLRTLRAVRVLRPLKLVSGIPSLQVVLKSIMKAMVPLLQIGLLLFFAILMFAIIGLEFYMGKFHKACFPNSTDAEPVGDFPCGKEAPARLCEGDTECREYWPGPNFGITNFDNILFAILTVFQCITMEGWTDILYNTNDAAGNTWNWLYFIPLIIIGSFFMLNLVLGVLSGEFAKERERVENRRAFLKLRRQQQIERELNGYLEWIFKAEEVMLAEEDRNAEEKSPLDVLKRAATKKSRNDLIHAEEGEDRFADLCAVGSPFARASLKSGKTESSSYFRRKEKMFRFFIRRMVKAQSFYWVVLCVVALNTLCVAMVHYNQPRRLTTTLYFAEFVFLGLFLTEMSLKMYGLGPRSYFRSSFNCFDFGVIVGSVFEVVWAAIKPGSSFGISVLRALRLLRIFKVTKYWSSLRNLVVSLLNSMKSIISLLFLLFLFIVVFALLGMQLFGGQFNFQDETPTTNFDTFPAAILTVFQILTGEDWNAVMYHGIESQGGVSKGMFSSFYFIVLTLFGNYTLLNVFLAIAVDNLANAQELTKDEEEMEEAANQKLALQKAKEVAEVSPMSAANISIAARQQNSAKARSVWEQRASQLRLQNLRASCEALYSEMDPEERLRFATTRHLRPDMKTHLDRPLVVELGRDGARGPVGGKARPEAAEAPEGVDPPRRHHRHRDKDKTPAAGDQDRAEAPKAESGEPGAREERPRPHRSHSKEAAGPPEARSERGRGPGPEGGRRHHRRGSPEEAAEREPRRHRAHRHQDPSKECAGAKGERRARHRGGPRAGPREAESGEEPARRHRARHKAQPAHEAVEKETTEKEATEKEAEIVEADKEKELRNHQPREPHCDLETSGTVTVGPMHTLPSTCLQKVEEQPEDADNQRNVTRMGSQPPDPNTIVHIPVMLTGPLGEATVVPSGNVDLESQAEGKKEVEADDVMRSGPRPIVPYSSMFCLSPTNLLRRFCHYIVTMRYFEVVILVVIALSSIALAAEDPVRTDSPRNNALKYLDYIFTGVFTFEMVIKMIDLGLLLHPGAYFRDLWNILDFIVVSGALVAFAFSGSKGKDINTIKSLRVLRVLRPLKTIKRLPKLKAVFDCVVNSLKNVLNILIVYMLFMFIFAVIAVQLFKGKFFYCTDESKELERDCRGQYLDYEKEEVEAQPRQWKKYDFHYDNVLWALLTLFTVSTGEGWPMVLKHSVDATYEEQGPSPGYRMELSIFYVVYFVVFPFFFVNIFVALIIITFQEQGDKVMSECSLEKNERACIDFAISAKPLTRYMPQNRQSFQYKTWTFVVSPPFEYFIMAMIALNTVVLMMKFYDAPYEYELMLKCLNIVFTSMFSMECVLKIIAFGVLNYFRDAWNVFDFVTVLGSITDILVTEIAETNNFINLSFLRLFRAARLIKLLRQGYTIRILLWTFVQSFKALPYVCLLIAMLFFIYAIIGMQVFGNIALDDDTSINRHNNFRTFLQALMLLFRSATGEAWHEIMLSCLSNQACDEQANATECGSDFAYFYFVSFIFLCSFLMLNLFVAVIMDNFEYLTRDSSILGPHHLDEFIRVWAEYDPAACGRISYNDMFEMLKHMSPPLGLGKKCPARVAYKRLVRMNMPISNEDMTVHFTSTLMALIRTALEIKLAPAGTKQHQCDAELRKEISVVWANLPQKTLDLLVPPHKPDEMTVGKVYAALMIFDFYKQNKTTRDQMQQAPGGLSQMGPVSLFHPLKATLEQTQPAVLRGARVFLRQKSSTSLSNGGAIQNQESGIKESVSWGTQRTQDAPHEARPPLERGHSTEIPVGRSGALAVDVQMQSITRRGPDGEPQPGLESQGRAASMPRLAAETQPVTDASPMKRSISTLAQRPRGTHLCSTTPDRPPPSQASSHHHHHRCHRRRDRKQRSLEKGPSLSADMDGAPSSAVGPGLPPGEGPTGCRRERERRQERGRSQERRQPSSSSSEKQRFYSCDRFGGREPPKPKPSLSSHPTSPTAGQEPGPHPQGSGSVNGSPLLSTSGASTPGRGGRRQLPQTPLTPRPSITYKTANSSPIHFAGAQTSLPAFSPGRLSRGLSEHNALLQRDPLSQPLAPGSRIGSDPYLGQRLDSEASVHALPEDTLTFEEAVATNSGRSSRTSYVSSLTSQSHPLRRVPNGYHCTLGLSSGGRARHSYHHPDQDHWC
T1 sequence (Q02410 whole entry): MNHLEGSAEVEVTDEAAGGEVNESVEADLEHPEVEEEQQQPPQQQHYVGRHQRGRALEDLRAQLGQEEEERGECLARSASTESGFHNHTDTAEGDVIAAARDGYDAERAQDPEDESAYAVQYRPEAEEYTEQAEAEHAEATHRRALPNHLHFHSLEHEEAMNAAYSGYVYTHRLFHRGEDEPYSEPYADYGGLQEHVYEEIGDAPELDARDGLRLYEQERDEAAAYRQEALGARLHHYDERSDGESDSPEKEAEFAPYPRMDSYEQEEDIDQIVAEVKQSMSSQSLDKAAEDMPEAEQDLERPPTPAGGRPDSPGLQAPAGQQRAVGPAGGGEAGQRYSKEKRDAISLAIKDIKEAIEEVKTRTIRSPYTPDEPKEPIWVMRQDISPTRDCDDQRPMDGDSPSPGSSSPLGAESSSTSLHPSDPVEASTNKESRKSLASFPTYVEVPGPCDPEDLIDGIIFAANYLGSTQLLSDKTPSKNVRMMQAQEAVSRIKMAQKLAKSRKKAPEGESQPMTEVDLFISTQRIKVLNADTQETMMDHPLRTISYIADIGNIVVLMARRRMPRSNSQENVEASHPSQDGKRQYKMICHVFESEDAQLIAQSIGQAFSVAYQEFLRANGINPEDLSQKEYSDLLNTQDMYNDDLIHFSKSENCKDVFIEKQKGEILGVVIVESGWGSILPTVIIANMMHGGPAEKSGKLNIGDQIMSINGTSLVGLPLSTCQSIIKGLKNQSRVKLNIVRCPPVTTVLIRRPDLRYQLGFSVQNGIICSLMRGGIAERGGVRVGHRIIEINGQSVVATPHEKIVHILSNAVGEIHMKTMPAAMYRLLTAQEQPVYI
Sequence of Induced myeloid leukemia cell differentiation protein Mcl-1 (Q07820 whole entry): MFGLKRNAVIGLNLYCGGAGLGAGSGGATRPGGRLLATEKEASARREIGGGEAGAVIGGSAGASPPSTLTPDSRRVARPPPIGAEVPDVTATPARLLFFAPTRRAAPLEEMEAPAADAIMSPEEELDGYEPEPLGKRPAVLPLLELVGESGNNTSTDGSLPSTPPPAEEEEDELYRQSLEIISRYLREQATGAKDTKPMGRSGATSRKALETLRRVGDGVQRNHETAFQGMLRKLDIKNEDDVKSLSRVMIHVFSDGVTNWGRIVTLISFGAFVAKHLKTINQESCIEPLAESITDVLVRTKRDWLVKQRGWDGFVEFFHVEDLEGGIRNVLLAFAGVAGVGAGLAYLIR
Sequence of Large T antigen (P03070 whole entry): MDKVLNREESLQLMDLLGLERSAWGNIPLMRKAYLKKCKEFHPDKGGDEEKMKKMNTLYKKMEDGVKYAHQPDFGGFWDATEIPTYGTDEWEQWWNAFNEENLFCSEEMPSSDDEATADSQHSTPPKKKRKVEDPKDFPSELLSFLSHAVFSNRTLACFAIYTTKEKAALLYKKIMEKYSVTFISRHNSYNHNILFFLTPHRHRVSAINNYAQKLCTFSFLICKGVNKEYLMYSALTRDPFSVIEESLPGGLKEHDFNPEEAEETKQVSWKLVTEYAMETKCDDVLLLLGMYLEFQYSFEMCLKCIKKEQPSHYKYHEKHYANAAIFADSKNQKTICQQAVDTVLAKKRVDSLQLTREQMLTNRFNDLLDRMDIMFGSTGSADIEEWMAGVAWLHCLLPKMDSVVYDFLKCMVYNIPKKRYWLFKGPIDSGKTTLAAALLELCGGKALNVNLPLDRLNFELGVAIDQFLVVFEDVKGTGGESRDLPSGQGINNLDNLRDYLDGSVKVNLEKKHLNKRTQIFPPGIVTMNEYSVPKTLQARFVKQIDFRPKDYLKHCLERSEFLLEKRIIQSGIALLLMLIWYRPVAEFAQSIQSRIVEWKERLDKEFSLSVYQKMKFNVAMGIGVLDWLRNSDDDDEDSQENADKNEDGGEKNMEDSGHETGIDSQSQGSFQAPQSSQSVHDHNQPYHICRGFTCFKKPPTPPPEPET

The term IC50 denotes the concentration that inhibits the measured activity by half. In the case of `N#Cc1c(O)nsc1Nc1ccccc1Cl`, the IC50 is > 50 µM (inactive) in [1] and 4.76 µM (active) in assay [2].

In the case of `COc1ccc(NC(=O)c2cc3ccc4c5ccccc5[nH]c4c3cc2O)cc1`, the figures for the IC50 in assay [1] and in assay [2] were > 50 µM (inactive) and 9.55 µM (active), respectively.

As a reminder, the EC50 is the concentration that produces a half-maximal response. Consider `C1=CC2c3ccccc3NC(c3ccncc3)C2C1` (centres undefined), for which the EC50 in [3] is > 300 µM (not active); in assay [4] it was 56.6 µM (inconclusive). Further, the IC50 in assay [5] was 2.42 µM (active).

As to `O=C(CCS(=O)(=O)c1ccccc1)Nc1ccc(-c2nc3ccccc3s2)cc1`, the IC50 is > 50 µM (inactive) in assay [1] and 12.5 µM (active) in assay [2].

As to `NC(=O)c1nsc(C(=O)N(c2cccc(F)c2)C(C(=O)NC2CCCC2)c2ccc(O)cc2)c1N` (centres undefined), the IC50 in assay [6] was > 20 µM (inactive).

Take `O=C(CC(=O)c1c(F)cccc1Cl)c1ccccc1O`: the 50% effective concentration (EC50) in [7] is 10.6 µM (active).

As usually defined, the AC50 is the concentration at which the activity in the assay is half-maximal. As to `CCOC(=O)C1=C(O)c2ccccc2C(=O)/C1=C\c1ccc(CC)cc1`, the EC50 in assay [8] was 13 µM (active); in the assay with Streptococcus it was 38.1 µM (active); on Protein RecA, 8.86 µM (active); at Streptokinase A, > 150 µM (not active). Besides, in assay [9], the AC50 was 4.44 µM (active). In addition, the IC50 in assay [5] is 7.19 µM (active).

`COc1ccc(OC)c(CCNC(=O)Cn2sc3nc(C)cc(C)c3c2=O)c1`: the IC50 was 22.1 µM (active) on Large T antigen, > 50 µM (inactive) in assay [1] and 5.66 µM (active) in assay [2]. In addition, the EC50 in assay [10] was 16.7 µM (active); in [11], 18.3 µM (active).

As to `CCN1C(=O)N/C(=C/c2ccc(C)o2)C1=O`, the IC50 was 22.6 µM (active) in [1] and 3.29 µM (active) in assay [2].

As to `Cn1c(=O)c2c(nc(CN3CCc4ccccc4C3)n2Cc2ccccc2F)n(C)c1=O`, the EC50 in assay [7] is 5.31 µM (active).

In the case of `CC(C)CC(C(=O)NC1CCCC1)N(Cc1ccc2c(c1)OCO2)C(=O)c1snc(C(N)=O)c1N` (centres undefined), in assay [6], the IC50 is > 20 µM (inactive).

For the molecule `O=C(Cc1cccc(F)c1F)NC1CCCN(Cc2ccc(Cl)cc2)C1` (centres undefined), in assay [7], the EC50 was 0.944 µM (active).

Take `Cc1ccc(NS(=O)(=O)c2ccc(C(=O)N3CC(C)CC(C)C3)cc2)cc1` (centres undefined): in assay [7], the EC50 was 4.22 µM (active).

On to `CCN1C(=O)CC(c2ccccc2)N(C2CCCC2)c2nc(Nc3ccc(C(=O)NC4CCN(C)CC4)cc3OC)ncc21` (centres undefined), for which the IC50 in [6] is > 20 µM (inactive).
